In US7825114B2, “Substituted aminopyrazolopyridines and salts thereof, pharmaceutical compositions comprising same, methods of preparing same and uses of same” (Bayer Schering Pharma AG, priority 2006, dated 2010):

How the values were obtained:
[1] = target: T1, Tie2 (Homo sapiens, UniProt Q02763); experiment: Tie2 ELISA assay (assay 1): cellular Tie2 autophosphorylation; assay type: cell-based; parameters: expressed in transfected cells; host or cells: CHO (DHFR-deficient), stably transfected; settings: CHO cells stably transfected with Tie2, stimulated by angiopoietin-2; Tie2 autophosphorylation by sandwich-ELISA; read-out: Tie 2 activity (assay 1)
Description: Assay 1: Tie2 ELISA Assay
Cellular activity of compounds of the present invention as inhibitors of Tie2 kinase activity was measured employing a Tie2 ELISA assay as described in the following paragraphs. Herein CHO cell-cultures, which are stably transfected by known techniques with Tie2 using DHFR deficiency as selection marker, are stimulated by angiopoietin-2. The specific autophosphorylation of Tie2 receptors is quantified with a sandwich-ELISA using anti-Tie2 antibodies for catch and anti-phosphotyrosine antibodies coupled to HRP for detection. […]
Target sequence in this assay (Q02763 23-1124): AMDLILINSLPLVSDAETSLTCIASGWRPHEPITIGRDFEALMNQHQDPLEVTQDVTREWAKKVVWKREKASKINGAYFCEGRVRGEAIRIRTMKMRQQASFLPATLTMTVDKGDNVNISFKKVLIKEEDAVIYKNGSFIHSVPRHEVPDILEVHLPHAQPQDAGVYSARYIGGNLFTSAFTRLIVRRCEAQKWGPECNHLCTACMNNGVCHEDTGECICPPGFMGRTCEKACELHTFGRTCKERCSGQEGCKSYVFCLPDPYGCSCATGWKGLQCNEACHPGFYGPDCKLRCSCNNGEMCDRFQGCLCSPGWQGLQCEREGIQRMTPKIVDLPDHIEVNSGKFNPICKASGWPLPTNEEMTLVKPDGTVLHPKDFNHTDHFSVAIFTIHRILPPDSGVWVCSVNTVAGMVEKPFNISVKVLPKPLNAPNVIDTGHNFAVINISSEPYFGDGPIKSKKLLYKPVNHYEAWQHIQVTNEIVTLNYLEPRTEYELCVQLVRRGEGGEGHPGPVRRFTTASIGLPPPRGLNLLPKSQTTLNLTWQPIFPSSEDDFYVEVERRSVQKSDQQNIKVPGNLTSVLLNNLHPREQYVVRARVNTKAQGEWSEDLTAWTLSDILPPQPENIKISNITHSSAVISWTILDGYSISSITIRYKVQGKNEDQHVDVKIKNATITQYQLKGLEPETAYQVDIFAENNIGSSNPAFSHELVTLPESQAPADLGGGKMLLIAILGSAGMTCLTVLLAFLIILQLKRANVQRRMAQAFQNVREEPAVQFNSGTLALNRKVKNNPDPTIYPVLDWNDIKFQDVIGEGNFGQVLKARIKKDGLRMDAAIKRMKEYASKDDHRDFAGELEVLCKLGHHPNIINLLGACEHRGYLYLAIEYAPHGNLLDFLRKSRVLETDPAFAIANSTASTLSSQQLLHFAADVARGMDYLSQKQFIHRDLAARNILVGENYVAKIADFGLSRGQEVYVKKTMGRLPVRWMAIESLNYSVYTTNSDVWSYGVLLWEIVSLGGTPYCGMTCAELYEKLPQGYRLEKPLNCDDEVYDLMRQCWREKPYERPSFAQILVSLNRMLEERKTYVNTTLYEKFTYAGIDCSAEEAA

[2] = target: T2, human c-kit (Homo sapiens, UniProt P10721); experiment: cKIT-Kinase HTRF-Assay (assay 4); assay type: biochemical; settings: for IC50: GST-tagged kinase domain of human c-kit, 10 μM ATP; for Selectivity vs. cKit: IC50 assay 4/IC50 assay 2
T2 construct: GST-tagged recombinant kinase domain of the human c-kit; GST; host or cells: SF-9 insect cells
Description: Assay 4: cKIT-Kinase HTRF-Assay
c-Kit-inhibitory activity of compounds of the present invention was quantified employing the c-kit HTRF assay as described in the following paragraphs. GST-tagged recombinant kinase domain of the human c-kit expressed in SF-9 cells was used as kinase. As substrate for the kinase reaction biotinylated poly-(Glu,Tyr) (Cis biointernational, France) was used.
c-Kit was incubated for 30 min at 22° C. in the presence of different concentrations of test compounds in 5 μl assay buffer [50 mM Hepes/NaOH pH 7.0, 1 mM MgCl2, 5 mM MnCl2, 1.0 mM dithiothreitol, 0.1 mM sodium ortho-vanadate, 10 μM adenosine-tri-phosphate (ATP), 1.3 μg/ml substrate, 0.001% (v/v) Nonidet-P40 (Sigma), 1% (v/v) dimethylsulfoxide]. The concentration of c-kit was adjusted depending of the activity of the enzyme lot and was chosen appropriate to have the assay in the linear range. The reaction was stopped by the addition of 5 μl of a solution of HTRF detection reagents (0.1 μM streptavidine-XLent and 1 nM PT66-Eu-Chelate, an europium-chelate labelled anti-phospho-tyrosine antibody from Perkin Elmer) in an aqueous EDTA-solution (80 mM EDTA, 0.2% (w/v) bovine serum albumin in 50 mM HEPES/NaOH pH 7.0).
(§1) The resulting mixture was incubated 1 h at 22° C. to allow the binding of the biotinylated phosphorylated peptide to the streptavidine-XLent and the PT66-Eu-Chelate. Subsequently the amount of phosphorylated substrate was evaluated by measurement of the resonance energy transfer from the PT66-Eu-Chelate to the streptavidine-XLent. Therefore, the fluorescence emissions at 620 nm and 665 nm after excitation at 350 nm was measured in a HTRF reader, e.g. a Rubystar (BMG Labtechnologies, Offenburg, Germany) or a Viewlux (Perkin-Elmer). The ratio of the emissions at 665 nm and at 622 nm was taken as the measure for the amount of phosphorylated substrate.

[3] = target: T1, Tie2; experiment: Tie-2-Kinase HTRF-Assay without kinase preactivation (assay 2); assay type: biochemical; parameters: A recombinant fusion protein of GST and the intracellular domains of Tie-2; GST; made in house; host or cells: insect cells (Hi-5); settings: GST-Tie-2 intracellular domains, no preactivation, 10 μM ATP
Source text: Assay 2: Tie-2-Kinase HTRF-Assay without Kinase Preactivation
Tie2-inhibitory activity of compounds of the present invention was quantified employing two Tie2 HTRF assay as described in the following paragraphs.
A recombinant fusion protein of GST and the intracellular domains of Tie-2, expressed in insect cells (Hi-5) and purified by Glutathion-Sepharose affinity chromatography was used as kinase. Alternatively, commercially available GST-Tie2-fusion protein (Upstate Biotechnology, Dundee, Scotland) can be used As substrate for the kinase reaction the biotinylated peptide biotin-Ahx-[…] (C-terminus in amid form) was used which can be purchased e.g. from the company Biosynthan GmbH (Berlin-Buch, Germany). Detection of phosphorylated product is achieved specifically by a trimeric detection complex consisting of the phosphorylated substrate, streptavidin-XLent (SA-XLent) which binds to biotin, and Europium Cryptate-labeled anti-phosphotyrosine antibody PT66 which binds to phosphorylated tyrosine.
The reaction was stopped by the addition of 5 μl of an aqueous buffer (25 mM Hepes/NaOH pH 7.5, 0.28% (w/v) bovine serum albumin) containing EDTA (90 mM) and the HTRF (Homogeneous Time Resolved Fluorescence) detection reagents streptavidine-XLent (0.2 μM, from Cis Biointernational, Marcoule, France) and PT66-Eu-Chelate (0.3 ng/μl; a europium-chelate labelled anti-phospho-tyrosine antibody from Perkin Elmer).
as §1, with “substrate peptide” for “substrate”, “substrate peptide.” for “substrate.”
Target sequence in this assay (Q02763 770-1124 limits assumed): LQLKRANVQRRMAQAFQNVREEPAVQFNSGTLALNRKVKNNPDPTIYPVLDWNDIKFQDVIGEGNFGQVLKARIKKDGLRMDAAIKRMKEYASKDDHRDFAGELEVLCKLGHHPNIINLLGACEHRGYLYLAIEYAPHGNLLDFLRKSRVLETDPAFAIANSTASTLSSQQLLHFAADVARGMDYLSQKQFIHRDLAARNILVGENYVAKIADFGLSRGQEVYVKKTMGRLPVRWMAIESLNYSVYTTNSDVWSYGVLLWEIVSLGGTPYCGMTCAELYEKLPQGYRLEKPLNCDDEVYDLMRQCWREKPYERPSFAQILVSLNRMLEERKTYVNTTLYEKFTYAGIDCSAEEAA

[4] = tested on: Tie2 vs. KDR; settings: Albert et al. Mol. Cancer. Ther. 2006, 5, 995; cited from earlier work
[5] = tested on: Tie2 vs. KDR; settings: Albert et al. Mol. Cancer. Ther. 2006, 5, 995; cited from earlier work; remark: listed apart in the source

T2 sequence (P10721 589-937 limits assumed): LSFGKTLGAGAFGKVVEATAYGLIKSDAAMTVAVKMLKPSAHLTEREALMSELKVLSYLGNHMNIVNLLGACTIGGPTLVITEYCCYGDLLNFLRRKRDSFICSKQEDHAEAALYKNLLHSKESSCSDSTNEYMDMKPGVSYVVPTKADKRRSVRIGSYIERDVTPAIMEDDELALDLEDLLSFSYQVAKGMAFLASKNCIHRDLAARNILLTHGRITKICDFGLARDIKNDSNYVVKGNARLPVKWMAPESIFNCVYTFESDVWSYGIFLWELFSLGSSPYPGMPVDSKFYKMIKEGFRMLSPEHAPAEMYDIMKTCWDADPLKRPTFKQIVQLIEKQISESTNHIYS

SMILES | IC50 [1] [nM] | IC50 [2] [nM] | Selectivity vs. cKit [2] | IC50 [3] [nM] | times less active against Tie2 vs. KDR in enzymatic assays [4] [times] | times less active against Tie2 than KDR in cellular assays [5] [times]
Cc1ccc(F)c(NC(=O)Nc2ccc(-c3ccnc4[nH]nc(N)c34)cc2)c1 [PA3, 1-[4-(3-Amino-1H-pyrazolo[3,4-b]pyridin-4-yl)-phenyl]-3-(2-fluoro-5-methyl-phenyl)-urea, reference compound] | 100 to 1000 | ≤ 100 | 0.26 | ≤ 100 | – | –
Cc1ccc(F)c(NC(=O)Nc2ccc(-c3cccc4[nH]nc(N)c34)cc2)c1 [PA1, 1-[4-(3-Amino-1H-indazol-4-yl)-phenyl]-3-(2-fluoro-5-methyl-phenyl)-urea] | – | – | – | – | ~40 | ~1000
Cn1nc(N)c2c(-c3ccc(NC(=O)Nc4cccc(C(F)(F)F)c4)cc3)cc(C3(C(=O)N4CCCC4)CC3)nc21 [Example 1.13, 1-(4-{3-Amino-1-methyl-6-[1-(pyrrolidine-1-carbonyl)-cyclopropyl]-1H-pyrazolo[3,4-b]pyridin-4-yl}-phenyl)-3-(3-trifluoromethyl-phenyl)-urea] | ≤ 100 | 1000 to 10000 | >100 | ≤ 100 | – | –
Cn1nc(N)c2c(-c3ccc(NC(=O)Nc4cccc(C(F)(F)F)c4)cc3)cc(C3(C(=O)NCCO)CC3)nc21 [Example 1.14, 1-(3-Amino-1-methyl-4-{4-[3-(3-trifluoromethyl-phenyl)-ureido]-phenyl}-1H-pyrazolo[3,4-b]pyridin-6-yl)-cyclopropanecarboxylic acid (2-hydroxy-ethyl)-amide] | 100 to 1000 | 100 to 1000 | 11 | ≤ 100 | – | –
Cn1nc(N)c2c(-c3ccc(NC(=O)Nc4ccccc4)cc3)ccnc21 [PA6, 1-[4-(3-Amino-1-methyl-1H-pyrazolo[3,4-b]pyridin-4-yl)-phenyl]-3-phenyl-urea, reference compound] | 1000 to 10000 | ≤ 100 | 0.06 | 1000 to 10000 | – | –
COC(=O)C[C@@H]1C[C@H](c2cc(-c3ccc(NC(=O)Nc4cccc(C(F)(F)F)c4)cc3)c3c(N)nn(C)c3n2)C1(C)C [Example 8.2, [3-(3-Amino-1-methyl-4-{4-[3-(3-trifluoromethyl-phenyl)-ureido]-phenyl}-1H-pyrazolo[3,4-b]pyridin-6-yl)-2,2-dimethyl-cyclobutyl]-acetic acid methyl ester] | ≤ 100 | 1000 to 10000 | 30 | ≤ 100 | – | –

Continued, in another order:

IC50 [1] [nM] | IC50 [2] [nM] | Selectivity vs. cKit [2] | IC50 [3] [nM] | SMILES | times less active against Tie2 vs. KDR in enzymatic assays [4] [times] | times less active against Tie2 than KDR in cellular assays [5] [times]
≤ 100 | 1000 to 10000 | >100 | ≤ 100 | Cc1ccc(F)c(NC(=O)Nc2ccc(-c3cc(C4(C(=O)N5CCCC5)CC4)nc4c3c(N)nn4C)cc2)c1 [Example 4.3] | – | –
≤ 100 | 100 to 1000 | 1.6 | ≤ 100 | Cn1nc(N)c2c(-c3ccc(NC(=O)Nc4cccc(C(F)(F)F)c4)cc3)ccnc21 [PA4, 1-[4-(3-Amino-1-methyl-1H-pyrazolo[3,4-b]pyridin-4-yl)-phenyl]-3-(3-trifluoromethyl-phenyl)-urea, reference compound] | – | –
≤ 100 | 1000 to 10000 | 24 | ≤ 100 | CCN(CC)C(=O)C1(c2cc(-c3ccc(NC(=O)Nc4cccc(C(F)(F)F)c4)cc3)c3c(N)nn(C)c3n2)CC1 [Example 1.11, 1-(3-Amino-1-methyl-4-{4-[3-(3-trifluoromethyl-phenyl)-ureido]-phenyl}-1H-pyrazolo[3,4-b]pyridin-6-yl)-cyclopropanecarboxylic acid diethylamide] | – | –
≤ 100 | 1000 to 10000 | 15 | ≤ 100 | Cc1ccc(F)c(NC(=O)Nc2ccc(-c3cc(C4(C(=O)N(C)C)CC4)nc4c3c(N)nn4C)cc2)c1 [Example 4.4, 1-(3-Amino-4-{4-[3-(2-fluoro-5-methyl-phenyl)-ureido]-phenyl}-1-methyl-1H-pyrazolo[3,4-b]pyridin-6-yl)-cyclopropanecarboxylic acid dimethylamide] | – | –
≤ 100 | ≤ 100 | 0.5 | 100 to 1000 | Cc1ccc(F)c(NC(=O)Nc2ccc(-c3ccnc4c3c(N)nn4C)cc2)c1 [PA5, 1-[4-(3-Amino-1-methyl-1H-pyrazolo[3,4-b]pyridin-4-yl)-phenyl]-3-(2-fluoro-5-methyl-phenyl)-urea, reference compound] | – | –
≤ 100 | 100 to 1000 | 9 | ≤ 100 | Cn1nc(N)c2c(-c3ccc(NC(=O)Nc4cccc(C(F)(F)F)c4)cc3)cc(C3CCCCC3)nc21 [Example 7.1, 1-[4-(3-Amino-6-cyclohexyl-1-methyl-1H-pyrazolo[3,4-b]pyridin-4-yl)-phenyl]-3-(3-trifluoromethyl-phenyl)-urea] | – | –
